One data set has as its system anti-T7 antibodies. Nature of the data set: T7 ELISA of serum from cured mice. The class given is in vivo, SKH1/hr mice. As for the experimental part: Blood (˜50-100 μl) 1 s taken by tail bleeding the mice and is collected into 0.8 ml MiniCollect® Z Serum Separator tubes that are coated with spray-dried clot activator (Greiner bio-one Cat. Num. 450472) and are spun at 3000 rpm in a microfuge at room temperature for 10 min. The serum is collected and stored at 4° C. for analysis of anti-T7 antibodies by ELISA.
Preparation of T7 ELISA plates: T7 cells are grown to 90% confluence. The medium is aspirated and the cells are washed once with ice-cold PBS. T7 cells are harvested by scraping in PBS supplemented with protease inhibitor cocktail (PIC) and disrupted by sonication at 4° C. for 1-2 min. The T7 lys ate solution is supplemented with bicarbonate buffer (pH 9.6) containing PIC to a final volume of 40 ml and 70 μl/well is added to each well in a 96 well plate (Nunc, Invitro Technologies Cat. Num. 442404). The plates are dried overnight at 37° C.
The following day, the plates are blocked with 10% (w/v) skim milk in PBS for 1 h at room temperature. Meanwhile mouse serum is prepared by diluting 1:7 to 1:413343 in 3-fold dilutions in PBS/0.01% Tween20 (v/v)/1% (w/v) skim milk for the IgG2a plate and 1:10 10 […] in 3-fold dilutions for the IgG1 plate. […] Spectrophotometric readings are taken on an ELISA plate reader at 405 nm and graphs are generated using Graphpad Prism Version 5.01 software. […]
For orientation: ELISA stands for enzyme-linked immunosorbent assay.

The next data set concerns UVB-damaged skin. Nature of the data set: Skin appearance and histology after treatment of UVB-damaged skin. The class given is in vivo, SKH1/hr mice. The procedure: For histological studies samples were fixed in 10% formalin and processed for paraffin embedding at the indicated times after ingenol mebutate treatment. Paraffin sections were stained with haematoxylin and eosin (H&E), or toluidine blue using standard protocols.
(§1) Three days after the last dose of UVB irradiation, an about 4 cm^2 dorsal area was topically treated daily for 2 days with 40 μl of 0.05% PEP005 gel or placebo gel. The treatment area was demarcated by a tattoo. Mice were culled 6 h (6 h) and 24 h (Day 1) after the first dose of 0.05% PEP005 gel and 24 h after the second dose of 0.05% PEP005 gel or placebo gel (Day 2). The samples were fixed in 10% formalin and processed by QIMR histology for paraffin embedding. Paraffin sections were stained with haematoxylin and eosin (H&E), Leder stain or toludine blue by QIMR Histotechnology, in accordance with standard protocols.
To identify the histological changes after 0.05% PEP005 gel treatment, skin was examined at different times after treatment; 6 h after the first dose was applied (6 h), 24 h after the first dose was applied (Day 1), and 24 h after the second dose was applied (Day 2). Placebo treated mice were treated with equivalent volumes of placebo gel and the skin examined 24 h after the second dose.
as §1, with “a ˜4 cm2” for “an about 4 cm^2”
Three days after the last dose of UVB irradiation, a ˜4 cm^2 dorsal area is topically treated daily for 2 days with 40 μl of 0.05% PEP005 gel or placebo gel. The treatment area is demarcated by a tattoo. […]

On to `C/C=C(/C)C(=O)O[C@H]1C(C)=C[C@]23C(=O)[C@@H](C=C(CO)[C@@H](O)[C@]12O)[C@H]1[C@@H](C[C@H]3C)C1(C)C` [ingenol mebutate], for which the “IgG1 and IgG2a anti-T7 antibodies vs naïve mice” value in the data set with anti-T7 antibodies (cured female mice bled 107 days post treatment, 0.25% topical) is “significantly more”. In addition, the anti-tumour antibodies result in the data set with anti-T7 antibodies (separate group, day 156 post treatment) is on record as “barely detectable”. For the same molecule, the “haemorrhage in treated skin” value in the data set with UVB-damaged skin (24-48 h after treatment initiation) is recorded as “widespread haemorrhage”. The “mast cells (toluidine blue staining)” value in the data set on UVB-damaged skin (24 h) is on record as “few toluidine blue staining cells could be seen”. In addition, in the data set on UVB-damaged skin (after healing up to 20-21 weeks, ~4 or ~10 cm2 area), the “reduction of mean skin area within the tattooed treatment area” value is listed as “about 3 fold”.
